The values below come from patent publication US20260306496A1, “CDK2 INHIBITOR PYRAZOLOPYRIMIDINE COMPOUNDS” (ALEKSIA THERAPEUTICS, INC., priority 2023, published 2026).

Structures are written as SMILES.

The target in one experiment is CDK2/CCNE1 (Homo sapiens, UniProt P24941). As to the kind of experiment: CDK2 homogeneous time-resolved fluorescence (HTRF) assay. The conditions noted are these: 3 nM CDK2/CCNE1, 1 mM ATP, 50 nM ULight-eIF4E-binding protein 1 (Thr37/46) peptide, 60 min at 23° C.; read-out: CDK2/CCNE IC50 <25 nM. The class given is biochemical. The protocol: A CDK homogeneous time-resolved fluorescence (HTRF) assay was used to assess the potency of the compounds described herein.
To an untreated 384-well microtiter plate (ProxiPlate) was added 100 nL 100× test compound in DMSO and 5 μL 2×CDK enzyme in assay buffer (50 mM HEPES, 1 mM EGTA, 10 mM MgCl2, 0.01% Tween 20, 2 mM DTT). The plate was centrifuged at 800 RPM for 1 min then incubated for 20 min at 23° C. 2.5 μL per well of 4×ATP and 2.5 μL 4×ULight™-eIF4E-binding protein 1 (Thr37/46) Peptide) substrate were added to all wells. After addition, the plates were centrifuged at 800 RPM for 1 min. The plates were incubated at 23° C. for 60 min. 5 μL per well 3×EDTA solution were added to each well to stop the reaction. 2.5 μL 7×LANCE Ultra Europium-anti-phospho-eTF4E-binding protein 1 (Thr37/46 antibody) were added to each well and the plate was centrifuged for 1 min at 800 RPM. The plate was incubated for 60 min at 23° C. Fluorescence was read at 340 nm excitation and 665 nm emission on an EnVision 2105 fluorescence reader. The final concentrations of reagents in the activity assay were 3 nM CDK2/CCNE1, 1 mM ATP, 50 nM ULight™-eIF4E-binding protein 1 (Thr37/46) Peptide substrate, 1% DMSO, 10 mM EDTA, and 2 nM LANCE Ultra Europium-anti-phospho-eTF4E-binding protein 1 (Thr37/46).
Dose-response titrations were conducted by using an 11-point, three-fold serial dilution scheme typically starting at 1 μM. Signals were reported as fluorescence units at 665 nm or the ratio of fluorescence units at 665 nm/fluorescence units at 615 nm. Signals are referred to below as “Lance signals”.
Using this assay, the IC50 values of example compounds were determined.
For orientation: In TR-FRET formats the signal depends on donor and acceptor labels being close together.
Turning to `CS(=O)(=O)c1ccc(Nc2ncc3cnn(C[C@H]4CC[C@@H](CCl)CC4)c3n2)cc1` [Compound 49, 1-(((1S,4S)-4-(chloromethyl)cyclohexyl)methyl)-N-(4-(methylsulfonyl)phenyl)-1H-pyrazolo[3,4-d]pyrimidin-6-amine], the IC50 was less than 25 nM.
On to `CS(=O)(=O)c1ccc(Nc2ncc3cnn([C@@H]4CCC[C@@H](O)C4)c3n2)cc1` [Compound 51, (1R,3R)-3-(6-((4-(methylsulfonyl)phenyl)amino)-1H-pyrazolo[3,4-d]pyrimidin-1-yl)cyclohexan-1-ol], for which the IC50 is less than 25 nM.

The same experiment, now with this note: 3 nM CDK2/CCNE1, 1 mM ATP, 50 nM ULight-eIF4E-binding protein 1 (Thr37/46) peptide, 60 min at 23° C.; read-out: CDK2/CCNE IC50 >150 nM.
Regarding `CS(=O)(=O)c1ccc(Nc2ncc3cnn(C[C@H]4CC[C@H](CCl)CC4)c3n2)cc1` [Compound 48, 1-(((1R,4R)-4-(chloromethyl)cyclohexyl)methyl)-N-(4-(methylsulfonyl)phenyl)-1H-pyrazolo[3,4-d]pyrimidin-6-amine], the IC50 was greater than 150 nM.
Same read-out and setting: under `CS(=O)(=O)c1ccc(Nc2ncc3cnn(C[C@@H]4CCC(=O)N4)c3n2)cc1` [Compound 57, (S)-5-((6-((4-(methylsulfonyl)phenyl)amino)-1H-pyrazolo[3,4-d]pyrimidin-1-yl)methyl)pyrrolidin-2-one] stands greater than 150 nM.
The same measure, in the same setting: under `CS(=O)(=O)c1ccc(Nc2ncc3cnn(CCc4ccccc4)c3n2)cc1` [Compound 62, N-(4-(methylsulfonyl)phenyl)-1-phenethyl-1H-pyrazolo[3,4-d]pyrimidin-6-amine] stands greater than 150 nM; under `CS(=O)(=O)c1ccc(Nc2ncc3cnn(CC4CCOCC4)c3n2)cc1` [Compound 63, N-(4-(methylsulfonyl)phenyl)-1-((tetrahydro-2H-pyran-4-yl)methyl)-1H-pyrazolo[3,4-d]pyrimidin-6-amine], greater than 150 nM.
As for `CS(=O)(=O)c1ccc(Nc2ncc3cnn(CC4CCCCC4)c3n2)cc1C(F)(F)F` [Compound 79, 1-(cyclohexylmethyl)-N-(4-(methylsulfonyl)-3-(trifluoromethyl)phenyl)-1H-pyrazolo[3,4-d]pyrimidin-6-amine], the IC50 is greater than 150 nM.
Same read-out and setting: under `CS(=O)(=O)c1ccc(Nc2ncc3cnn(CC4CCCCC4)c3n2)cc1F` [Compound 80, 1-(cyclohexylmethyl)-N-(3-fluoro-4-(methylsulfonyl)phenyl)-1H-pyrazolo[3,4-d]pyrimidin-6-amine] stands greater than 150 nM; under `Cn1cc2cc(-n3ncc4cnc(Nc5ccc(S(C)(=O)=O)cc5)nc43)ccc2n1` [Compound 82, 1-(2-methyl-2H-indazol-5-yl)-N-(4-(methylsulfonyl)phenyl)-1H-pyrazolo[3,4-d]pyrimidin-6-amine], greater than 150 nM.
Regarding `CN(CCO)[C@H]1CC[C@H](Cn2ncc3cnc(Nc4ccc(S(C)(=O)=O)cc4)nc32)CC1` [Compound 84, 2-(methyl((1r,4r)-4-((6-((4-(methylsulfonyl)phenyl)amino)-1H-pyrazolo[3,4-d]pyrimidin-1-yl)methyl)cyclohexyl)amino)ethan-1-ol], the IC50 was greater than 150 nM.

Staying with this experiment, now noted: column 25-150 nM; 3 nM CDK2/CCNE1, 1 mM ATP, 50 nM ULight-eIF4E-binding protein 1 (Thr37/46) peptide, 60 min at 23° C.; read-out: CDK2/CCNE IC50 25-150 nM.
Turning to `CS(=O)(=O)c1ccc(Nc2ncc3cnn([C@@H]4CC[C@@H](O)C4)c3n2)cc1` [Compound 50, (1R,3R)-3-(6-((4-(methylsulfonyl)phenyl)amino)-1H-pyrazolo[3,4-d]pyrimidin-1-yl)cyclopentan-1-o1], the IC50 was 25 to 150 nM.
For the compound `CS(=O)(=O)c1ccc(Nc2ncc3cnn([C@@H]4CCC[C@H](C#N)C4)c3n2)cc1` [Compound 52, (1S,3R)-3-(6-((4-(methylsulfonyl)phenyl)amino)-1H-pyrazolo[3,4-d]pyrimidin-1-yl)cyclohexane-1-carbonitrile], the IC50 lay in the range of 25 to 150 nM.
Take `CS(=O)(=O)c1ccc(Nc2ncc3cnn(C4CCC(=O)CC4)c3n2)cc1` [Compound 53, 4-(6-((4-(methylsulfonyl)phenyl)amino)-1H-pyrazolo[3,4-d]pyrimidin-1-yl)cyclohexan-1-one]: the IC50 was 25 to 150 nM.
On the same count and under the same terms, under `OCc1cc(Nc2ncc3cnn(CC4CCCCC4)c3n2)ccc1O` [Compound 55, 4-((1-(cyclohexylmethyl)-1H-pyrazolo[3,4-d]pyrimidin-6-yl)amino)-2-(hydroxymethyl)phenol] stands 25 to 150 nM; under `CN(C)[C@H]1CC[C@@H](Cn2ncc3cnc(NC4CCN(S(C)(=O)=O)CC4)nc32)CC1` [Compound 56, 1-(((1S,4S)-4-(dimethylamino)cyclohexyl)methyl)-N-(1-(methylsulfonyl)piperidin-4-yl)-1H-pyrazolo[3,4-d]pyrimidin-6-amine], 25 to 150 nM.
Regarding `CCN(C)[C@H]1CC[C@@H](Cn2ncc3cnc(Nc4ccc(S(C)(=O)=O)cc4)nc32)CC1` [Compound 75, 1-(((1s,4s)-4-(ethyl(methyl)amino)cyclohexyl)methyl)-N-(4-(methylsulfonyl)phenyl)-1H-pyrazolo[3,4-d]pyrimidin-6-amine], the IC50 was in the range of 25 to 150 nM.
The same measure, in the same setting: the value for `CS(=O)(=O)c1ccc(Nc2ncc3cnn(-c4ccc5cn[nH]c5c4)c3n2)cc1` [Compound 76, 1-(1H-indazol-6-yl)-N-(4-(methylsulfonyl)phenyl)-1H-pyrazolo[3,4-d]pyrimidin-6-amine] was 25 to 150 nM.
As for `Cn1ncc2cc(-n3ncc4cnc(Nc5ccc(S(C)(=O)=O)cc5)nc43)ccc21` [Compound 81, 1-(1-methyl-1H-indazol-5-yl)-N-(4-(methylsulfonyl)phenyl)-1H-pyrazolo[3,4-d]pyrimidin-6-amine], the IC50 lay within 25 to 150 nM.
